Source: US8822509B2, “Pain-relieving compositions and uses therefor” (priority 2006, dated 2014)
Where “and” joins values, the source holds several entries; their conditions need not be identical. Equal entries are not always repeated. Entries after “also recorded” stand apart in the source; their conditions may differ.

Tests used:
[1] = In vitro NO release (Total NOx, modified Griess reagent assay)
Method: Briefly, HEK-MOP cells were seeded at 1×10^5 cells/mL and grown in 10 cm plates to 90% confluence. Four hours prior to experimentation, cell medium was replaced with phenol red-free DMEM. […] Following removal of each supernatant sample, it was replaced with 500 μL of phenol red-free DMEM. Samples were immediately placed on ice until NOx concentrations were quantified.
Sample aliquots (100 μL) were added to 96-well plates in duplicates. Nitrate was first converted to nitrite to determine total NOx concentrations with the addition of 100 μL aliquots of vanadium (III) chloride in 1M HCl (800 mg/100 mL) per well, followed by 100 μL aliquots of modified Griess reagent which converted nitrite to a deep purple azo derivative for spectrophotometric quantification at 560 nm using an Envision Multilabel Plate Reader (PerkinElmer Life Sciences). […] Total NOx and nitrite concentration was determined through inverse prediction against the nitrite standard curve.

[2] = target: T1, μ-opioid receptors (MOP receptors) (Mus musculus, UniProt P42866); format: cell-based; conditions: 2% βCD 1 h 37° C.; reversed by βCD-cholesterol complexes
T1 construct: expressed in transfected cells; host or cells: HEK293
T1 sequence (P42866 whole entry): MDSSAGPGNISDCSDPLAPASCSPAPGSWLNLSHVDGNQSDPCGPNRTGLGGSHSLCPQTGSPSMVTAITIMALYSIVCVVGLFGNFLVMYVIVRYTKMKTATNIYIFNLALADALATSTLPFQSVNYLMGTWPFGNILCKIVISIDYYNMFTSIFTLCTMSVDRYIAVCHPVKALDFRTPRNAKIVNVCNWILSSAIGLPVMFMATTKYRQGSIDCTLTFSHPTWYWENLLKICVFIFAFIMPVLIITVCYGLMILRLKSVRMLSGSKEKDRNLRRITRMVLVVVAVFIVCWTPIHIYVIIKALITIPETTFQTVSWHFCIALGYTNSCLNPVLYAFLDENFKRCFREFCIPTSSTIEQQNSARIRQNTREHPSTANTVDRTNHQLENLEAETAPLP
Method: Briefly, HEK-MOP cells were pre-incubated with 2% (2-hydroxypropyl)-β-cyclodextrin (βCD) for 1 h at 37° C. to deplete cholesterol from caveloae in the cell membrane. Cells were washed with DMEM and then utilized in the forskolin-stimulated cAMP assay as described above. […] Cells were washed with DMEM and then utilized in the forskolin-stimulated cAMP assay as described above.

[3] = tested on: tactile allodynia in 14-18 week STZ-diabetic rats; test: Naloxone or ODQ pre-treatment before test article in 14-18 week STZ-diabetic rats, von Frey PWT; format: in vivo, Wistar rats
[4] = tested on: non-diabetic control rats; test: Tolerance development (7-day continuous s.c. infusion, 2-day washout) in non-diabetic control rats, von Frey PWT; format: in vivo
[5] = target: δ-opioid receptors (DOP receptors) (Mus musculus, UniProt P32300); test: Forskolin-stimulated cAMP responses in DOP-transfected HEK293 cells; conditions: DOP-transfected HEK293, entire concentration range tested
δ-opioid receptors (DOP receptors), sequence (P32300 whole entry): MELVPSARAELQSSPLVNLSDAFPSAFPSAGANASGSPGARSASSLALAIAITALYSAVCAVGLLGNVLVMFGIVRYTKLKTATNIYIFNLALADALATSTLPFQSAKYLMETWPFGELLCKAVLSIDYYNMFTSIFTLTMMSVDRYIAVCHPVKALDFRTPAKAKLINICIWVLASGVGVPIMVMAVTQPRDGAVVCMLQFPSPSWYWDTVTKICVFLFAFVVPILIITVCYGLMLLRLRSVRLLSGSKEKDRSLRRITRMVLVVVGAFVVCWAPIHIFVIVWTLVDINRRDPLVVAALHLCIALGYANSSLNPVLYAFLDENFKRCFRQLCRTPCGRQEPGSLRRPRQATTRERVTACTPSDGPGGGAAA
Method: (§1) Non-transfected HEK293 cells were used as a control. Transfected HEK293 cells were maintained in Dulbecco's Modified Eagle's Medium (DMEM) supplemented with 10% fetal bovine serum (FBS) and geneticin (1 mg/mL). Non-transfected HEK293 cells were maintained in DMEM supplemented with 10% FBS.
(§2) The functional interaction between opioids and opioid-like compounds and specific opioid G-protein-coupled receptors (GPCRs) was assessed by measuring changes in intracellular cAMP levels relative to basal levels. The Alphascreen cAMP functional assay measures agonist and antagonist activity of GPCRs by stimulating cells to either increase or decrease intracellular cAMP levels. The assay was performed using an Alphascreen cAMP kit according to the manufacturer's instructions. […]
(§3) Detection of cAMP is based on the competition between intracellular cAMP and biotinylated cAMP linked streptavidin-coated donor beads for anti-cAMP conjugated acceptor beads. When the donor and acceptor beads are in close proximity visible light emitted at 520-620 nm is detected using the Envision multilabel plate reader. […]
(§4) The assay performance was optimized by using cells at low passage number and at 70-90% confluence. […] The cell concentration was determined using a haemocytometer. […] Note that the cell number will influence the cAMP levels measured before (basal) and after adenylyl cyclase activation. […]

[6] = tested on: systolic blood pressure of normotensive non-diabetic Wistar rats; test: Systolic blood pressure (tail cuff) in normotensive rats; format: in vivo
Method: Sedation was induced by the intraperitoneal administration of Zoletil® (tiletamine 15 mg kg^−1 and zolazepam 15 mg kg^−1). Using a tail pulse transducer (MLT1010) and an inflatable tail cuff with a Capto SP844 physiological pressure transducer (MLT844/D), systolic blood pressure was recorded via a PowerLab data acquisition unit (ADInstruments, Sydney, Australia). Tails were warmed with lukewarm water prior to each blood pressure reading to increase peripheral circulation so as to facilitate blood pressure recordings using the tail cuff method.
This study was designed to assess the effects of single s.c. bolus doses of the furoxan NO donor, Compound 1, relative to vehicle (DMSO:water, 90:10) on systolic blood pressure in normotensive, non-diabetic, adult male Wistar rats. Single bolus doses of Compound 1 were administered by s.c. injection into the back of the neck of adult male normotensive, non-diabetic Wistar rats in the dose range, 80 fmol/kg to 80 lμmol/kg. Specifically, the doses of Compound 1 tested were 80 fmol/kg (n=3), 800 pmol/kg (n=8), 8 nmol/kg (n=6), 800 nmol/kg (n=4), 8 μmol/kg (n=4), 80 μmol/kg (n=3).

[7] = tested on: cGMP formation in HEK-MOP cells; test: cGMP levels in MOP-transfected HEK cells (AlphaScreen); format: cell-based
Method: For assessment of cGMP levels in MOP-transfected HEK cells, the methods used were similar to those described in Example 6 with the exception that forskolin was omitted from the incubations. cGMP levels were quantified using AlphaScreen detection kits according to the manufacturer's instructions. Briefly, 5 μL aliquots of the cell suspension were added to individual wells containing 5 μL aliquots of test or control article solutions at the concentration of interest in triplicates in 384-well plates and incubated for 30 min at 37° C. cGMP standard solutions were serially diluted in stimulation buffer to give concentrations in the range of 5×10^−10-5×10^−6 M and were added at 10 μL/well. After cells were lysed with lysis buffer, 5 μL aliquots of acceptor bead mix (10 μl/mL of acceptor beads and 1/3000 anti-cGMP antibody for cGMP detection in lysis buffer) were added to each well. After plates were incubated in the dark at room temperature for 60 min, 5 μL aliquots of donor bead mix (10 μL/mL of donor beads and 0.3 nM biotinylated cGMP in lysis buffer) were added per well and plates were incubated for 16 h in the dark at room temperature. […] was measured using an Envision Multilabel Plate Reader (PerkinElmer Life Sciences).

STZ-diabetic rats [8] = test: Tolerance development (7-day s.c. infusion, 2-day washout) in STZ-diabetic rats, von Frey PWT; format: in vivo
STZ-diabetic rats [9] = test: Behavioural side-effects in STZ-diabetic rats; format: in vivo; conditions: Compound 1 800 pmol/kg s.c.; morphine 21 μmol/kg
[10] = target: T1, μ-opioid receptors (MOP receptors); format: cell-based
[11] = tested on: non-transfected HEK293 cells; test: Forskolin-stimulated cAMP responses in non-transfected HEK293 cells; conditions: non-transfected HEK293, entire concentration range tested
Method: as §1, §2, §3, §4

[12] = drug-naïve non-diabetic rats, first s.c. bolus
[13] = non-diabetic rats, second s.c. bolus after 7-day infusion and 2-day washout
[14] = non-diabetic rats, second s.c. bolus after washout
[15] = STZ-diabetic rats, second bolus Compound 1 800 pmol/kg after 2-day washout
[16] = naïve STZ-diabetic rats, first s.c. bolus

SMILES: Cc1c(C=O)no[n+]1[O-] [Compound 1, 4-formyl-3-methyl-1,2,5-oxadiazole-2-oxide]
- Release of NO (Total NOx %) ([1]; Compound 1, 1 mM + L-Cysteine 5 mM, 6-h (b277 prints 50 mM)): 2.7±0.3% and 2.7 + 0.3%
- Release of NO (Total NOx %) ([1]; Compound 1, 1 mM, 6-h study period): 1.8% and 1.8±0.3%
- 1 Hour Total NOx ([1]; NOx analysis at 1 hour, assay of Example 9): 2.08 µM and 2.19 µM
- 6 Hours Total NOx ([1]; NOx analysis at 6 hours, assay of Example 9): 2.52 µM
- effect of lipid raft/caveolae depletion on cAMP effects [2]: inhibited the effects of Compound 1; also recorded: sensitive to removal of lipid rafts/caveolae
- effect of ODQ pre-treatment on anti-allodynia ([3]; ODQ 53.4 μmol/kg s.c. 60 min before Compound 1 800 pmol/kg s.c.): significantly attenuated from 45 minutes onwards; also recorded: partially sensitive
- effect of naloxone pre-treatment on anti-allodynia (ΔPWT AUC) ([3]; naloxone 1.25 μmol/kg s.c. 10 min before Compound 1 800 pmol/kg or morphine 7 μmol/kg s.c.): did not significantly attenuate; also recorded: naloxone insensitive
- mean duration of action [4, 12]: ~3 h
- time of peak antinociception post-dosing [4, 12]: 1 h
- mean (±SEM) peak PWT ([4]; drug-naïve non-diabetic rats, Compound 1 8 fmol/kg, morphine 2.8 mmol/kg (so in the source) s.c. bolus): 15.9 ± 0.3 g
- tolerance after 7-day continuous s.c. infusion ([4]; non-diabetic rats): completely tolerant
- antinociception after second bolus, naïve vs "tolerant" rats ([4]; non-diabetic rats, after 2-day washout): did not differ significantly
- mean (±SEM) peak PWT [4, 13]: 15.6 (±0.7) g
- mean (±SEM) peak ΔPWT [4, 13]: 4.2 (±0.6) g
- mean duration of action [4, 14]: ~3 h
- time of peak antinociception post-dosing [4, 14]: 1 h
- inhibition of forskolin-stimulated cAMP formation [5]: did not appear to inhibit
- effect on systolic blood pressure ([6]; 80 μmol/kg s.c., 30 min post-dosing vs pre-dosing baseline): decreased significantly; also recorded: significantly reduced systolic blood pressure
- mean (±SEM) systolic blood pressure at time of peak effect ([6]; 80 μmol/kg s.c., 30 min post-dosing, pre-dose 111.3 (±1.5)): 79.8 (±0.5) mm Hg
- mean systolic blood pressure ([6]; 80 μmol/kg s.c., 1 h post-dosing): 112.6±0.4 mm Hg
- effect on systolic blood pressure ([6]; single s.c. bolus 80 fmol/kg to 8 μmol/kg, up to 1 h): no significant effects
- cGMP Activity (% of basal cGMP response) ([7]; Compound 1, 1 mM): 159 + 20%
- cGMP Activity (% of basal cGMP response) ([7]; Compound 1, 1 mM + L-Cysteine 5 mM): 185 + 34%
- fold increase in cGMP activity with L-cysteine ([7]; Compound 1, 1 mM + L-Cysteine 5 mM vs alone): (1.2 fold increase)
- stimulation of cGMP formation ([7]; HEK-MOP cells, presence and absence of L-cysteine (5 mM)): comparatively weak stimulation of cGMP formation
- tolerance after 7-day s.c. infusion (STZ-diabetic rats [8]; STZ-diabetic rats): completely tolerant
- anti-allodynia after second bolus (tolerance status) (STZ-diabetic rats [8]; STZ-diabetic rats, after 2-day washout, morphine 10.5 μmol/kg, Compound 1 800 pmol/kg): significant reversal of tolerance
- mean duration of action (STZ-diabetic rats [8]; [15]): 2 to 3 h
- time of peak anti-allodynia post-dosing (STZ-diabetic rats [8]; [15]): ~1 h
- mean duration of action (STZ-diabetic rats [8]; [16]): ~4 h
- time of peak anti-allodynia post-dosing (STZ-diabetic rats [8]; [16]): 1 h
- mean (±SEM) peak PWT (STZ-diabetic rats [8]; naïve STZ-diabetic rats, Compound 1 800 pmol/kg, morphine 10.4 μmol/kg s.c. bolus): 11.6 (±0.6) g
- behavioural side-effects at highest dose (STZ-diabetic rats [9]): no discernable side-effects
- effect of naloxone pre-incubation on inhibition of forskolin-stimulated cAMP formation [10]: not by naloxone
- inhibition of forskolin-stimulated cAMP formation ([10]; MOP-transfected HEK293, mM, pM and aM concentrations): inhibited forskolin-stimulated cAMP formation
- effect of ODQ pre-incubation on modulation of forskolin-stimulated cAMP formation ([10]; ODQ 10 μM): did not significantly attenuate
- effect of pertussis toxin pre-incubation on inhibition of forskolin-stimulated cAMP formation ([10]; PTX 100 ng/mL 16 h, Compound 1 1 aM, morphine 1 μM): abolished by pre-incubation with pertussis toxin
- inhibition of forskolin-stimulated cAMP formation [11]: did not appear to inhibit
